From ChEMBL document CHEMBL4507298 (2021) come the findings set out here.

In general, Ki refers to the equilibrium dissociation constant of an inhibitor or competing ligand from its target. What is called IC50 is the midpoint of a concentration-inhibition curve. A low value points to greater potency in that assay. For orientation: inhibition means the change of the read-out against control, counted positive when it falls.

Data set [1] has as its target T1, Histamine H4 receptor (Homo sapiens, UniProt Q9H3N8). In words: GPCRScan assay: inhibition of H4. Details: radioligand conc. used [nm] 1.0 – 5.0, parental cells HEK T.
For data set [2], the target named is Prostaglandin E2 receptor EP2 subtype (Homo sapiens, UniProt P43116). The data set can be described thus: Inhibition of binding to PTGER2.
Chain of Prostaglandin E2 receptor EP2 subtype (P43116 whole entry): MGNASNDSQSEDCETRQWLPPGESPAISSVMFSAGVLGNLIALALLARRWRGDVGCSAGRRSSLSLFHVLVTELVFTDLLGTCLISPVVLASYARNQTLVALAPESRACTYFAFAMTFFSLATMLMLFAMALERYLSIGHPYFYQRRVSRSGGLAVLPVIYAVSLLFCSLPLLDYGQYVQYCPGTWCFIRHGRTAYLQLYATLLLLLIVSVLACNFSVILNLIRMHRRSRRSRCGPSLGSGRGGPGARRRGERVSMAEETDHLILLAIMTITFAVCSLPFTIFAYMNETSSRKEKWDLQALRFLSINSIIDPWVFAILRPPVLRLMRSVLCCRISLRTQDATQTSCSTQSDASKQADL
The target in data set [3] is T2, 5-hydroxytryptamine receptor 2C (Homo sapiens) (UniProt P28335).
T2 sequence (whole entry): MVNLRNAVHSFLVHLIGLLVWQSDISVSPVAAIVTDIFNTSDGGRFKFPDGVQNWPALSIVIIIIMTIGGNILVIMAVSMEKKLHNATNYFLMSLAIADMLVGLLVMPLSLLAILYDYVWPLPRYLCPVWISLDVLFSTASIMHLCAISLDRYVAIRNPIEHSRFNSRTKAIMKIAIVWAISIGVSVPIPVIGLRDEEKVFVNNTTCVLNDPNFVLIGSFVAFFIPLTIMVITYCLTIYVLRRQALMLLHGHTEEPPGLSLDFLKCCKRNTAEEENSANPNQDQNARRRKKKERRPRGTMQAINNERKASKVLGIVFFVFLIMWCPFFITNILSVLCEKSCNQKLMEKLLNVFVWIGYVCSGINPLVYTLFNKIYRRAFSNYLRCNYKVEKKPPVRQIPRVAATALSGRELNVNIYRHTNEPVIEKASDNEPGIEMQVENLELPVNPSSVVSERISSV
In words: 5-HT2C (h) (agonist site) CEREP ligand profiling. The settings on record: Compound concentration 10.0 uM.

The target of data set [4] is Adenosine receptor A1 (Homo sapiens) (UniProt P30542). The data set can be described thus: A1 (h) CEREP ligand profiling. The settings on record: Compound concentration 10.0 uM.
Data set [5] has as its target Voltage-dependent N-type calcium channel subunit alpha-1B (Homo sapiens) (UniProt Q00975). In words: Ca2+ channel (N) CEREP ligand profiling. The following applies: Compound concentration 10.0 uM.
In data set [6] the target is Carbonic anhydrase 2 (Homo sapiens) (UniProt P00918). The data set can be described thus: Carbonic anhydrase II (h) CEREP ligand profiling. The following applies: Compound concentration 10.0 uM.
Data set [7] concerns the target C-X-C chemokine receptor type 4 (Homo sapiens) (UniProt P61073). The data set can be described thus: CXCR4 (h) CEREP ligand profiling. The following applies: Compound concentration 10.0 uM.
In data set [8] the target is CYP2D6 (Homo sapiens, UniProt P10635). In words: CYP2D6 inhibition CEREP ligand profiling. The following applies: compound concentration 10 uM.
Chain of CYP2D6 (P10635 whole entry): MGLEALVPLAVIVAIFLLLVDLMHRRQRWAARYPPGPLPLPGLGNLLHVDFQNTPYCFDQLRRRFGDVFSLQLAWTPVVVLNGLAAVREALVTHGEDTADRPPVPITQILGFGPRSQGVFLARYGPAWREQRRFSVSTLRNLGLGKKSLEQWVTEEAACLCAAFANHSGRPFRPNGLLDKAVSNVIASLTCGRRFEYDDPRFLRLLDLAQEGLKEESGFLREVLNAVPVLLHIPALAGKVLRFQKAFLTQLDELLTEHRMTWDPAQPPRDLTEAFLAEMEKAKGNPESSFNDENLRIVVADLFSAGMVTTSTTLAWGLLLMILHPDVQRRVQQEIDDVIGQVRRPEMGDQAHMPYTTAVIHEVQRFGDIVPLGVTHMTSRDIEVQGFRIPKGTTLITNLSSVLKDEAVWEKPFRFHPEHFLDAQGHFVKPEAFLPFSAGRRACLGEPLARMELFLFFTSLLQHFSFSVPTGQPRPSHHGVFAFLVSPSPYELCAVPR
Data set [9] concerns the target D(1A) dopamine receptor (Homo sapiens, UniProt P21728). The data set can be described thus: D1 (h) CEREP ligand profiling. The following applies: Compound concentration 10.0 uM.
Data set [10] addresses Endothelin receptor type B (Homo sapiens) (UniProt P24530). The data set can be described thus: ETB (h) CEREP ligand profiling. The following applies: Compound concentration 10.0 uM.
Data set [11] addresses T1, Histamine H4 receptor. The data set can be described thus: H4 (h) CEREP ligand profiling. The following applies: Compound concentration 10.0 uM.
Data set [12] addresses T3, Muscarinic acetylcholine receptor M5 (Homo sapiens) (UniProt P08912).
T3 sequence (whole entry): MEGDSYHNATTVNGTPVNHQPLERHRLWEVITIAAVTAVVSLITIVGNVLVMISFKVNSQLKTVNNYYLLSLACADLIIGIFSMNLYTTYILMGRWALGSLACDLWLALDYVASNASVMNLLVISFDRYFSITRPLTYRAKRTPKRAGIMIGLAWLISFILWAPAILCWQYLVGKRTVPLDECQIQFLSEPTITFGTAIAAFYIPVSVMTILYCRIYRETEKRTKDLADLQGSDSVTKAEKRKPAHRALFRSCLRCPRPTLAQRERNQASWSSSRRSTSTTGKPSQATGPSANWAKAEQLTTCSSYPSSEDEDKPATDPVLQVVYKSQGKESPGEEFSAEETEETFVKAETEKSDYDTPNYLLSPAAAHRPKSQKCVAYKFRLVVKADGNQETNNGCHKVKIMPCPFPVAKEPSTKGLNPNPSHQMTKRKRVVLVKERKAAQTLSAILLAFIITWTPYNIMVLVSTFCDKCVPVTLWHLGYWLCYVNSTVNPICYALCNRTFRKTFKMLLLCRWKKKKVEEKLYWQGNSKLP
In words: M5 (h) CEREP ligand profiling. The following applies: Compound concentration 10.0 uM.

Data set [13] addresses Mitogen-activated protein kinase 14 (Homo sapiens) (UniProt Q16539). In words: p38 alpha kinase (h) CEREP ligand profiling. The settings on record: Compound concentration 10.0 uM.
Data set [14] deals with Dual 3',5'-cyclic-AMP and -GMP phosphodiesterase 11A (Homo sapiens) (UniProt Q9HCR9). In words: PDE11 (h) CEREP ligand profiling. The following applies: Compound concentration 10.0 uM.
Data set [15] addresses Peroxisome proliferator-activated receptor gamma (Homo sapiens) (UniProt P37231). In words: PPAR gamma (h) CEREP ligand profiling. The following applies: Compound concentration 10.0 uM.
Data set [16] addresses Tyrosine-protein kinase ZAP-70 (Homo sapiens) (UniProt P43403). The data set can be described thus: ZAP70 kinase (h) CEREP ligand profiling. The following applies: Compound concentration 10.0 uM.
The target in data set [17] is Mitogen-activated protein kinase kinase kinase 6 (Homo sapiens) (UniProt O95382). The following applies: Compound concentration 1000.0 nM.
Chain of Mitogen-activated protein kinase kinase kinase 6 (Homo sapiens) (O95382 whole entry): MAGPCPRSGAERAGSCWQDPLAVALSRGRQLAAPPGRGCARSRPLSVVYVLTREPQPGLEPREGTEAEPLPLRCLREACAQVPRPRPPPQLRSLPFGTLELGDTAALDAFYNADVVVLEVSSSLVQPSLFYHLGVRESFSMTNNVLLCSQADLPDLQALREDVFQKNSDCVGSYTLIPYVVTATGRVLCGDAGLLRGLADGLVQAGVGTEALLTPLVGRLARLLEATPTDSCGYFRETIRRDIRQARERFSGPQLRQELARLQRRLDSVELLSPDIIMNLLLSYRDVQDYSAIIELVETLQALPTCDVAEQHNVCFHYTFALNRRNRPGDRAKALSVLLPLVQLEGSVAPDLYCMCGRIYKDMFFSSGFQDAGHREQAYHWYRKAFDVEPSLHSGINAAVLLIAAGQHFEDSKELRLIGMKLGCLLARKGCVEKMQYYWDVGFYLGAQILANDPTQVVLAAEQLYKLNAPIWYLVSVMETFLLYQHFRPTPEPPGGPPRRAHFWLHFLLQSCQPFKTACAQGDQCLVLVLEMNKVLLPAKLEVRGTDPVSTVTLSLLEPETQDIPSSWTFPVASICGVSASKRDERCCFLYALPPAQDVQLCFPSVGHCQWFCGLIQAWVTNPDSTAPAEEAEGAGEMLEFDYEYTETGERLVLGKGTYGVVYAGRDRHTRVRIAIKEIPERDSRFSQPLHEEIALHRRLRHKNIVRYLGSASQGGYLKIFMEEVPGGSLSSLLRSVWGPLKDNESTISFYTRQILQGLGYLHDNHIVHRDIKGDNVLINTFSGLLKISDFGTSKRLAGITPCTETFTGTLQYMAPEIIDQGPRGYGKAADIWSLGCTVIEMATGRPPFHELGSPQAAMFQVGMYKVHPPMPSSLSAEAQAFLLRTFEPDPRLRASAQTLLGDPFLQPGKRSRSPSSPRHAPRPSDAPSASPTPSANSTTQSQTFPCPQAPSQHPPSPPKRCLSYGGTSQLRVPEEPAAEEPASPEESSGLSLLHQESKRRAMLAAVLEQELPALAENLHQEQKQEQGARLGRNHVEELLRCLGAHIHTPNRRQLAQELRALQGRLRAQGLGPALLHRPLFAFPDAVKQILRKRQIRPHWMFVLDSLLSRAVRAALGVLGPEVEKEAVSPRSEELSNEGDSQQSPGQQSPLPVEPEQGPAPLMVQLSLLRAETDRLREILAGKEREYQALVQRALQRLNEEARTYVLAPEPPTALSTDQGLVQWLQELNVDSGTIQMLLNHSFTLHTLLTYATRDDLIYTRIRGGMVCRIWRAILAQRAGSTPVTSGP
Data set [18] has as its target Cyclin-dependent kinase 4 (Homo sapiens) (UniProt P11802). The following applies: Compound concentration 1000.0 nM.
Data set [19] deals with Cyclin-dependent kinase-like 2 (Homo sapiens) (UniProt Q92772). The settings on record: Compound concentration 1000.0 nM.
Data set [20] concerns the target Cyclin-dependent kinase-like 3 (Homo sapiens) (UniProt Q8IVW4). The following applies: Compound concentration 1000.0 nM.
In data set [21] the target is Serine/threonine-protein kinase Chk1 (Homo sapiens) (UniProt O14757). The following applies: Compound concentration 1000.0 nM.
The target of data set [22] is Ephrin type-A receptor 3 (Homo sapiens) (UniProt P29320). The following applies: Compound concentration 1000.0 nM.
The target in data set [23] is Serine/threonine-protein kinase/endoribonuclease IRE1 (Homo sapiens) (UniProt O75460). The settings on record: Compound concentration 1000.0 nM.
The target of data set [24] is Glycogen synthase kinase-3 alpha (Homo sapiens) (UniProt P49840). The following applies: Compound concentration 1000.0 nM.
Data set [25] has as its target Mitogen-activated protein kinase kinase kinase kinase 1 (Homo sapiens) (UniProt Q92918). The settings on record: Compound concentration 1000.0 nM.
Data set [26] concerns the target Serine/threonine-protein kinase ICK (Homo sapiens) (UniProt Q9UPZ9). The following applies: Compound concentration 1000.0 nM.
The target in data set [27] is Insulin receptor (Homo sapiens) (UniProt P06213). The settings on record: Compound concentration 1000.0 nM.
Data set [28] addresses LIM domain kinase 2 (Homo sapiens) (UniProt P53671). The settings on record: Compound concentration 1000.0 nM.
Data set [29] addresses Mitogen-activated protein kinase kinase kinase 2 (Homo sapiens) (UniProt Q9Y2U5). The settings on record: Compound concentration 1000.0 nM.
Data set [30] has as its target Serine/threonine-protein kinase 38 (Homo sapiens) (UniProt Q15208). The following applies: Compound concentration 1000.0 nM.
Data set [31] concerns the target Ribosomal protein S6 kinase alpha-6 (Homo sapiens) (UniProt Q9UK32). The following applies: Compound concentration 1000.0 nM.
Data set [32] concerns the target NUAK family SNF1-like kinase 2 (Homo sapiens) (UniProt Q9H093). The settings on record: Compound concentration 1000.0 nM.
The target in data set [33] is High affinity nerve growth factor receptor (Homo sapiens) (UniProt P04629). The following applies: Compound concentration 1000.0 nM.

T1 sequence (Q9H3N8 whole entry): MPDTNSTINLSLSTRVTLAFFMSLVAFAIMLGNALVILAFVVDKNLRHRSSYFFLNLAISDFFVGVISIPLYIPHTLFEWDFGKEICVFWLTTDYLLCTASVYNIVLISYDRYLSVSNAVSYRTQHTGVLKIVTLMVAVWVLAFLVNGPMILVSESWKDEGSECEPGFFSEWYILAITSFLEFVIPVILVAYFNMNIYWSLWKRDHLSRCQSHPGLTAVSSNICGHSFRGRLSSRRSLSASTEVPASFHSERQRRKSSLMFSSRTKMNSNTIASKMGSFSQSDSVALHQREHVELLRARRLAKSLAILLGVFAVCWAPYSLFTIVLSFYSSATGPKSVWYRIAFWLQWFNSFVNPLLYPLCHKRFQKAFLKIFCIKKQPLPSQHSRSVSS
Chain of NUAK family SNF1-like kinase 2 (Homo sapiens) (Q9H093 whole entry): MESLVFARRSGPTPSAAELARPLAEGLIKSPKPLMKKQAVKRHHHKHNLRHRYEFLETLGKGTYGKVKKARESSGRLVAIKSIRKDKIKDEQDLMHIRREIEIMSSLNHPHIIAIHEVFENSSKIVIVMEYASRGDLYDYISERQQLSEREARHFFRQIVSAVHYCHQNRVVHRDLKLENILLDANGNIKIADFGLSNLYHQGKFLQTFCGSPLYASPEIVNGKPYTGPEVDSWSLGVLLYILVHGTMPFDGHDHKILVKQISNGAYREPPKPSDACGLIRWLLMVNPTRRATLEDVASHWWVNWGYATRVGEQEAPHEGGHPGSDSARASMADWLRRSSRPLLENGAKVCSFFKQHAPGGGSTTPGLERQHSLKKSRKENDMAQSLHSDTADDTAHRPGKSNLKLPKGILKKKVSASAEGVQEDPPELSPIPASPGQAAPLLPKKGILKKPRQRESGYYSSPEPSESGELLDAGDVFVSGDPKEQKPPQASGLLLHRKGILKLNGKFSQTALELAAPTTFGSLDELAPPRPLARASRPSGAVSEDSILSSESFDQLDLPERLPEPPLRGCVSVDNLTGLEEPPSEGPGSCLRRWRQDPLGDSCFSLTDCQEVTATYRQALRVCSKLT
Chain of Mitogen-activated protein kinase kinase kinase 2 (Homo sapiens) (Q9Y2U5 whole entry): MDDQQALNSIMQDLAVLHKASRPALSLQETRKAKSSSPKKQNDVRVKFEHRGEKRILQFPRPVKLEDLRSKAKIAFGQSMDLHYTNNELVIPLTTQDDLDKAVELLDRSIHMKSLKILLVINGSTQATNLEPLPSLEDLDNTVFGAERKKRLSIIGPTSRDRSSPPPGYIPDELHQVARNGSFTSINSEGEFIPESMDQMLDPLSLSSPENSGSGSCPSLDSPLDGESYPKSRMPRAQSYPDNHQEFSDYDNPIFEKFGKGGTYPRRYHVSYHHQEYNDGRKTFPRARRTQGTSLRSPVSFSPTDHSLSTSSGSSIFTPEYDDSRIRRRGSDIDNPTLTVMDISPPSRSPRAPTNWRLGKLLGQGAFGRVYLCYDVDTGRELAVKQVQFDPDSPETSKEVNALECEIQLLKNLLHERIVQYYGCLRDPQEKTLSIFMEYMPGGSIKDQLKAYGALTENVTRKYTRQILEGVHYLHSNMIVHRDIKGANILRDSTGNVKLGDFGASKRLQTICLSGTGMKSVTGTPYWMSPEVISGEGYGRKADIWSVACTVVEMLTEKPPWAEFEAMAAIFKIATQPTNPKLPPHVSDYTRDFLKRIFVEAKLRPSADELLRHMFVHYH
Chain of Ribosomal protein S6 kinase alpha-6 (Homo sapiens) (Q9UK32 whole entry): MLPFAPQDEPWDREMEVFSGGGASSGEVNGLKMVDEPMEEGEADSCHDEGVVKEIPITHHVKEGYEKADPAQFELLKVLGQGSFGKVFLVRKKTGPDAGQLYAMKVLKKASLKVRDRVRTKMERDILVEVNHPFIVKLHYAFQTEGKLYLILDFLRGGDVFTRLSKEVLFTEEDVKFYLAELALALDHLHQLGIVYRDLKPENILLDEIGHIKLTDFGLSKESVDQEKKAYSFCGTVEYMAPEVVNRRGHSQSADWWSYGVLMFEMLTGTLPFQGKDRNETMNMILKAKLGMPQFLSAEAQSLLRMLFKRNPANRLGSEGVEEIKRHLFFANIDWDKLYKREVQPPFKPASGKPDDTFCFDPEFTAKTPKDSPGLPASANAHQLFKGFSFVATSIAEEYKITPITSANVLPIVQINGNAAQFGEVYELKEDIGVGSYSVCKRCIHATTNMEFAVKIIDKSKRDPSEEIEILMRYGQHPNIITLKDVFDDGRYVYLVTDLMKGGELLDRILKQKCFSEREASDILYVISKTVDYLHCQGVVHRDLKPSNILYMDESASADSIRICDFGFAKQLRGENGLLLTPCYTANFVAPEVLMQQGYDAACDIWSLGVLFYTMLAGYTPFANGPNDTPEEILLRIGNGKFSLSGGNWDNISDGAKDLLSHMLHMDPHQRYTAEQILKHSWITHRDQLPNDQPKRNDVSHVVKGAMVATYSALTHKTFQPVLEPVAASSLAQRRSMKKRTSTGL
Chain of Serine/threonine-protein kinase 38 (Homo sapiens) (Q15208 2-465 limits assumed): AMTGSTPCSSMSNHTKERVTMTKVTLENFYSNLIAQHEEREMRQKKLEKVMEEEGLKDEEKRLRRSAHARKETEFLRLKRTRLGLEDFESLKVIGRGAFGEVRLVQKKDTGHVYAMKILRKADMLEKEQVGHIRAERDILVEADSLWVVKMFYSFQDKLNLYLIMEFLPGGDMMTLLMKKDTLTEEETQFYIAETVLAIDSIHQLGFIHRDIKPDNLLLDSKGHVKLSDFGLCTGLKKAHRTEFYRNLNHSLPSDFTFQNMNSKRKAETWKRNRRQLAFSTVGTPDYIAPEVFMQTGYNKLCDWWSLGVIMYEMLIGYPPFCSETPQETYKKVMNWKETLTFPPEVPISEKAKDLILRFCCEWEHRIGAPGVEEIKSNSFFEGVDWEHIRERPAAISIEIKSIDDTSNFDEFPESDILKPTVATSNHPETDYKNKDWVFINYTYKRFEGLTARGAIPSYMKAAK

For the molecule `O=C(c1ccc(F)cc1)N1CC(COc2ccc(Br)cc2)(C(=O)O)C1` [PF-04475866], in [1], the Ki is 10 µM. Further, the IC50 in data set [2] is listed as 1.3 µM (not active).

In the case of `COc1ccc2cc(OCC3(C(=O)O)CN(C(=O)c4ccc(F)cc4)C3)ccc2c1` [PF-04418948], the inhibition in data set [3] was -6%; in data set [4], -2%; in [5], -7%; in [6] it was 9%; in data set [7], 4%; in data set [9], 5%. Further, the inhibition in data set [10] was -1%; in [11], -4%; in [12], 1%; in data set [13], -1%; in data set [14], 14%; in data set [15], 14%. For the same molecule, the inhibition in [16] was 9%. Moreover, the inhibition at 10 µM in data set [8] is 18% (not active). Further, the residual activity in [17] is 95%; in data set [18], 90%; in [19], 89%; in data set [20], 89%; in data set [21] it was 87%; in [22] it was 92%. For the same molecule, the residual activity is 80% in [23]; 96% in [24]; 95% in data set [25]; 78% in data set [26]; 93% in data set [27]; 90% in data set [28]. Besides, the residual activity in data set [29] is 96%; in [30], 98%; in data set [31] it was 78%; in [32] it was 92%; in data set [33], 71%.
